# Results published in the supplement of paper PMC10307832.
# Legend:
# Assay in all cases: relative viability (nuclei count vs DMSO), 5 days (fraction); higher = more cells survive
# BEN = test system: BEN
# In short: (§1)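 Relative viability equals treated-well nuclei counts divided by vehicle-well nuclei counts. Counts came from 4× images of lung cancer cell lines grown in 1536-well plates for 5 days after pin-tool dosing on the day after seeding. Dosing used one drug alone or a fixed anchor-drug dose plus five library-drug doses (not always all listed) in √10 steps, and values are medians of duplicate plates.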
# CAL-12T = test system: CAL-12T
# In short: as §1
# COR-L23 = test system: COR-L23
# In short: as §1
# HCC-366 = test system: HCC-366
# In short: as §1
# LOU-NH91 = test system: LOU-NH91
# In short: as §1
# LU99A = test system: LU99A
# In short: as §1
# NCI-H1355 = test system: NCI-H1355
# In short: as §1
# NCI-H1437 = test system: NCI-H1437
# In short: as §1
# NCI-H1563 = test system: NCI-H1563
# In short: as §1
# NCI-H1650 = test system: NCI-H1650
# In short: as §1
# NCI-H1651 = test system: NCI-H1651
# In short: as §1
# NCI-H1734 = test system: NCI-H1734
# In short: as §1
# NCI-H1975 = test system: NCI-H1975
# In short: as §1
# NCI-H2023 = test system: NCI-H2023
# In short: as §1
# NCI-H2085 = test system: NCI-H2085
# In short: as §1
# NCI-H441 = test system: NCI-H441
# In short: as §1
# NCI-H460 = test system: NCI-H460
# In short: as §1
# NCI-H838 = test system: NCI-H838
# In short: as §1
# SK-LU-1 = test system: SK-LU-1
# In short: as §1
smiles,measurement,setting,value
O=c1cc(N2CCOCC2)oc2c(-c3cccc4c3sc3ccccc34)cccc12 + CC(C)C[C@H](NC(=O)[C@H](Cc1ccccc1)NC(=O)c1cnccn1)B(O)O [Bortezomib] (partner 0.002 µM),relative viability,BEN; first compound 0.01 µM,0.867
same,relative viability,BEN; first compound 0.03162 µM,0.949
same,relative viability,BEN; first compound 0.1 µM,0.673
same,relative viability,BEN; first compound 0.3162 µM,0.793
same,relative viability,BEN; first compound 1 µM,0.712
same,relative viability,CAL-12T; first compound 0.01 µM,0.857
same,relative viability,CAL-12T; first compound 0.1 µM,0.985
same,relative viability,CAL-12T; first compound 0.3162 µM,1.01
same,relative viability,CAL-12T; first compound 1 µM,0.925
same,relative viability,COR-L23; first compound 0.01 µM,1.03
same,relative viability,COR-L23; first compound 0.03162 µM,1
same,relative viability,COR-L23; first compound 0.1 µM,1.09
same,relative viability,COR-L23; first compound 0.3162 µM,0.904
same,relative viability,COR-L23; first compound 1 µM,1.03
same,relative viability,HCC-366; first compound 0.01 µM,1.09
same,relative viability,HCC-366; first compound 0.03162 µM,1.09
same,relative viability,HCC-366; first compound 0.1 µM,1.03
same,relative viability,HCC-366; first compound 0.3162 µM,1.06
same,relative viability,HCC-366; first compound 1 µM,1.04
same,relative viability,LOU-NH91; first compound 0.01 µM,0.448
same,relative viability,LOU-NH91; first compound 0.03162 µM,0.487
same,relative viability,LOU-NH91; first compound 0.1 µM,0.538
same,relative viability,LOU-NH91; first compound 0.3162 µM,0.548
same,relative viability,LOU-NH91; first compound 1 µM,0.457
same,relative viability,LU99A; first compound 0.01 µM,1.25
same,relative viability,LU99A; first compound 0.03162 µM,1.11
same,relative viability,LU99A; first compound 0.1 µM,1.19
same,relative viability,LU99A; first compound 0.3162 µM,1.03
same,relative viability,LU99A; first compound 1 µM,1.29
same,relative viability,NCI-H1355; first compound 0.01 µM,1.26
same,relative viability,NCI-H1355; first compound 0.03162 µM,1.15
same,relative viability,NCI-H1355; first compound 0.3162 µM,1.19
same,relative viability,NCI-H1355; first compound 1 µM,1.25
same,relative viability,NCI-H1437; first compound 0.01 µM,0.493
same,relative viability,NCI-H1437; first compound 0.03162 µM,0.515
same,relative viability,NCI-H1437; first compound 0.1 µM,0.477
same,relative viability,NCI-H1437; first compound 0.3162 µM,0.527
same,relative viability,NCI-H1437; first compound 1 µM,0.57
same,relative viability,NCI-H1563; first compound 0.01 µM,1
same,relative viability,NCI-H1563; first compound 0.03162 µM,0.809
same,relative viability,NCI-H1563; first compound 0.1 µM,0.9
same,relative viability,NCI-H1563; first compound 0.3162 µM,0.734
same,relative viability,NCI-H1563; first compound 1 µM,0.762
same,relative viability,NCI-H1650; first compound 0.03162 µM,0.243
same,relative viability,NCI-H1650; first compound 0.1 µM,0.193
same,relative viability,NCI-H1650; first compound 0.3162 µM,0.219
same,relative viability,NCI-H1650; first compound 1 µM,0.175
same,relative viability,NCI-H1651; first compound 0.01 µM,0.897
same,relative viability,NCI-H1651; first compound 0.03162 µM,0.991
same,relative viability,NCI-H1651; first compound 0.1 µM,0.952
same,relative viability,NCI-H1651; first compound 0.3162 µM,0.939
same,relative viability,NCI-H1651; first compound 1 µM,0.871
same,relative viability,NCI-H1734; first compound 0.01 µM,0.92
same,relative viability,NCI-H1734; first compound 0.03162 µM,0.808
same,relative viability,NCI-H1734; first compound 0.1 µM,1.01
same,relative viability,NCI-H1734; first compound 0.3162 µM,0.938
same,relative viability,NCI-H1734; first compound 1 µM,0.899
same,relative viability,NCI-H1975; first compound 0.01 µM,0.384
same,relative viability,NCI-H1975; first compound 0.03162 µM,0.387
same,relative viability,NCI-H1975; first compound 0.1 µM,0.479
same,relative viability,NCI-H1975; first compound 0.3162 µM,0.349
same,relative viability,NCI-H1975; first compound 1 µM,0.372
same,relative viability,NCI-H2023; first compound 0.01 µM,1.04
same,relative viability,NCI-H2023; first compound 0.03162 µM,1.02
same,relative viability,NCI-H2023; first compound 0.1 µM,1.05
same,relative viability,NCI-H2023; first compound 0.3162 µM,0.936
same,relative viability,NCI-H2023; first compound 1 µM,0.907
same,relative viability,NCI-H2085; first compound 0.01 µM,0.995
same,relative viability,NCI-H2085; first compound 0.03162 µM,1.01
same,relative viability,NCI-H2085; first compound 0.1 µM,1.03
same,relative viability,NCI-H2085; first compound 0.3162 µM,1.06
same,relative viability,NCI-H2085; first compound 1 µM,0.967
same,relative viability,NCI-H441; first compound 0.01 µM,0.443
same,relative viability,NCI-H441; first compound 0.03162 µM,0.565
same,relative viability,NCI-H441; first compound 0.1 µM,0.487
same,relative viability,NCI-H441; first compound 0.3162 µM,0.301
same,relative viability,NCI-H441; first compound 1 µM,0.684
same,relative viability,NCI-H460; first compound 0.01 µM,1.01
same,relative viability,NCI-H460; first compound 0.03162 µM,1.13
same,relative viability,NCI-H460; first compound 0.1 µM,1.3
same,relative viability,NCI-H460; first compound 0.3162 µM,1.06
same,relative viability,NCI-H460; first compound 1 µM,1.07
same,relative viability,NCI-H838; first compound 0.01 µM,0.779
same,relative viability,NCI-H838; first compound 0.03162 µM,0.673
same,relative viability,NCI-H838; first compound 0.1 µM,0.805
same,relative viability,NCI-H838; first compound 0.3162 µM,0.813
same,relative viability,NCI-H838; first compound 1 µM,0.908
same,relative viability,SK-LU-1; first compound 0.01 µM,1.15
same,relative viability,SK-LU-1; first compound 0.03162 µM,1.36
same,relative viability,SK-LU-1; first compound 0.3162 µM,1.5
same,relative viability,SK-LU-1; first compound 1 µM,1.17
